Three compounds from ChEMBL document CHEMBL3243992, “Synthesis and carcinogenic activity of 5-fluoro-7-(oxygenated methyl)-12-methylvenz[a]anthracenes” (J Med Chem, 1978) can be followed below.

Data set [1] concerns Rattus norvegicus. Put plainly: Carcinogenic activity in Sprague-Dawley rat assessed as tumor induction time at 0.1 umol, sc three times a week for 30 days. It counts as ADME, organism-based. Conditions: in vivo, 720 h.
Data set [2] has as its system Rattus norvegicus. Put plainly: Carcinogenic activity in Sprague-Dawley rat assessed as tumor formation at 0.1 umol, sc three times a week for 30 days observed up to 270 days. It counts as ADME, organism-based. The settings on record: in vivo.

As to `CC(=O)OCc1c2ccccc2c(C)c2c1cc(F)c1ccccc12`, the Time with Rattus norvegicus [1] is 205.7 days.
Consider `Cc1c2ccccc2c(CO)c2cc(F)c3ccccc3c12`, for which, in the data set with Rattus norvegicus [2], the Activity result is “Non-toxic”.
Consider `Cc1c2ccccc2c(C)c2c1cc(F)c1ccccc12`, for which the Time in the data set with Rattus norvegicus [1] was determined as 231 days.
